{
  "source": "patent US10472341B2",
  "about": "“Bicyclic tetrahydrothiazepine derivatives useful for the treatment of neoplastic and/or infectious diseases” (APEIRON BIOLOGICS AG, priority 2015, dated 2019)",
  "key": {"CD8 T cells": {"test_system": "CD8 T cells", "assay": "CD69 expression on aCD3/aCD28 stimulated isolated human CD8 T cells (flow cytometry)", "assay_type": "cell-based", "conditions": "T-cell, 24 h after TCR stimulation, read-out: Activity Class CD69 (CD8)", "procedure,_shortened": "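Isolated CD4 and CD8 T cells plated at 80000 cells per well in Xvivo medium and stimulated with anti-CD3/28 mAbs in presence of compound. CD69 expression measured by flow cytometry 24 h after TCR stimulation.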"}, "M21 melanoma cells": {"test_system": "M21 melanoma cells", "assay": "M21 viability (number of living cells) with or without CD8 cells", "assay_type": "cell-based, human", "protocol": "Isolated PBMCs, NK cells or CD8 positive cells were plated in Xvivo medium at 1.5*10^5 cells per in 96 well culture plates in the presence of 0.3*10^4 tumor cells where indicated. Cytokine secretion was determined by ELISA, immune cell activation (using Beckman-Coulter Abs CD25-PC5, CD69-PC7), cell viability and numbers by flow cytometry (Beckman-Coulter FC500 or Gallios) using 7-AAD exclusion as criterion for living cells. CD8-positive immune cells were isolated from PBMCs and were incubated with and without compound example 67, either alone or in co-culture with M21 melanoma cells."}, "OT-II cells": {"test_system": "OT-II cells", "assay": "OT-II transfer model, oral administration: antigen-specific T cell proliferation and CD69", "assay_type": "in vivo, mouse", "conditions": "mice", "protocol": "• Single cell suspension of splenocytes was prepared from the spleen by rinsing cells through a sterile 70 μm filter with PBS • Cells were collected by centrifugation in an 15 ml tube, the cell pellet was resuspended in 1 ml of Erylyse buffer and incubated at room temperature for 5 minutes, tubes were filled up with PBS and cells were washed twice • Cells were counted and resuspended in the desired buffer volume for MACS-enrichment or flow cytometric analysis Isolation of CD4 T Cells from OT-II Transgenic Mice • Splenocytes were resuspended in MACS buffer ([…] MACS-buffer/10^7 cells) • CD4 T cells were isolated using the CD4 T cell isolation kit (Miltenyi) with LS-columns following manufacturer's recommendations CFSE-Labeling of T Cells • Cells were resuspended in PBS with 0.1% BSA at 1×10^7 cells/ml and CFSE-solution was added to final concentration of 2.5 μM CFSE • Incubated for 10 min at 37° C., swung each 2 min • Same volume of FCS added and incubated for 5 min at room temperature • Cells were washed twice with RMPI-10% FCS medium • Cells were counted and resuspended in PBS or medium at desired concentration OT-II Transfer • Day 0: OT-II cells were transferred in PBS (3*10^6. Cells in 100 μl PBS) by retro-orbital injection • Day 1: WT mice got OVA vaccinated (subcut. flank, 10 μg LPS, 2 μg OVA per animal) • 2 & 4 h later compounds were administrated; for oral dosing compound was used as suspension (0.5% methylcellulose in water), for i.v. dosing compound was solubilized in DMSO and diluted with PBS • Day 2: compounds were administrated twice in the morning (with 2 h time interval) • Day 3: Mice were sacrificed & splenocytes were isolated • T cell proliferation & phenotype was determined by flow cytometry • Flow cytometry-Staining (all Abs purchased from eBioscience and used as recommended by the manufacturer): B220-eF450, CD4-PE, CD25PerCPCy5.5, CD69-PC7, TCRVa2-APC, CD8-AF700, CD3-eF780; CFSE; 7-AAD • Acquisition on Beckman-Coulter Gallios, Analysis using Kaluza Software OT-I Transfer to Mice with B16-F10-OVA Tumors • Day 0: 100000 B16-F10-OVA tumor cells were inoculated subcutaneously at the flank of WT-mice • Day 7: OT-I cells were transferred in PBS (3*10^6. […]"}},
  "note": "Where a name gives a salt, the structure may show the parent alone.",
  "data": [
    {"smiles": "Cl.N[C@H]1CS(=O)(=O)c2cc(F)c(C(=O)NCCCC(F)(F)F)cc2N(Cc2ccc(Cl)cc2)C1=O", "note": "[Example 70, (3R)-3-amino-5-[(4-chlorophenyl)methyl]-8-fluoro-1,1,4-trioxo-N-(4,4,4-trifluoro-butyl)-2,3,4,5-tetrahydro-1λ^6,5-benzothiazepine-7-carboxamide hydrochloride]", "values": [
      {"measurement": "EC50", "setting": "CD8 T cells", "value": "< 1.58", "unit": "µM"}
    ]},
    {"smiles": "CCCCNC(=O)c1ccc2c(c1)N(Cc1ccc(OC(F)(F)F)cc1)C(=O)[C@@H](N)CS2(=O)=O.Cl", "note": "[Example 67, (3R)-3-amino-N-butyl-1,1,4-trioxo-5-{[4-(trifluoromethoxy)phenyl]methyl}-2,3,4,5-tetrahydro-1λ^6,5-benzothiazepine-7-carboxamide hydrochloride]", "values": [
      {"measurement": "M21 Viability [Number of Living Cells] average", "setting": "M21 melanoma cells; 0.03 μM, CD8 cells & M21", "value": "13077.00 Number of Living Cells"},
      {"measurement": "M21 Viability [Number of Living Cells] average", "setting": "M21 melanoma cells; 0.1 μM, CD8 cells & M21", "value": "11586.67 Number of Living Cells"},
      {"measurement": "M21 Viability [Number of Living Cells] average", "setting": "M21 melanoma cells; 0.3 μM, CD8 cells & M21", "value": "9525.67 Number of Living Cells"},
      {"measurement": "M21 Viability [Number of Living Cells] average", "setting": "M21 melanoma cells; 1 μM, CD8 cells & M21", "value": "3916.67 Number of Living Cells"},
      {"measurement": "M21 Viability [Number of Living Cells] average", "setting": "M21 melanoma cells; 3 μM, CD8 cells & M21", "value": "3604.00 Number of Living Cells"},
      {"measurement": "M21 Viability [Number of Living Cells] average", "setting": "M21 melanoma cells; 10 μM, CD8 cells & M21", "value": "3448.67 Number of Living Cells"},
      {"measurement": "M21 Viability [Number of Living Cells] average", "setting": "M21 melanoma cells; 10 μM, M21 only (no CD8 cells)", "value": "18139 Number of Living Cells"},
      {"measurement": "viable tumor cells", "setting": "M21 melanoma cells; immune cell cocultures with M21 tumor cells", "value": "strong reduction in viable tumor cells"}
    ]},
    {"smiles": "N[C@H]1CS(=O)(=O)c2cc(F)c(C(=O)NC3CC3(F)F)cc2N(Cc2ccc(Cl)cc2)C1=O", "note": "(stereo partly drawn) [Example 1, (3R)-3-amino-5-[(4-chlorophenyl)methyl]-N-(2,2-difluorocyclopropyl)-8-fluoro-1,1,4-trioxo-2,3,4,5-tetrahydro-1λ^6,5-benzothiazepine-7-carboxamide hydrochloride]", "values": [
      {"measurement": "Proliferated OT-II cells [% gated] average", "setting": "OT-II cells; LPS & OVA vaccination, 10 mg/kg dosed orally, splenocytes day 3", "value": 29.03, "unit": "% gated"},
      {"measurement": "CD69 on transferred OT-II cells", "setting": "OT-II cells; LPS & OVA, 10 mg/kg orally", "value": "CD69 was not further upregulated"},
      {"measurement": "Proliferation of OT-II cells", "setting": "OT-II cells; LPS & OVA, 10 mg/kg orally, versus no compound", "value": "highly significantly (p<0.00001) enhanced"}
    ]}
  ]
}
